Measurements taken from patent US12419869B2, “Methods of treating multiple sclerosis” (Vanda Pharmaceuticals Inc., priority 2021, dated 2025).

Tests used:
[1] = tested on: peripheral lymphocyte count; format: in vivo, human
Source text: PONVORY causes a dose-dependent reduction in peripheral lymphocyte count to 30-40% of baseline values because of reversible sequestration of lymphocytes in lymphoid tissues [see Clinical Pharmacology (12.2)]. PONVORY may therefore increase the susceptibility to infections. Life-threatening and rare fatal infections have been reported in association with other sphingosine 1-phosphate (SIP) receptor modulators.
Initiation of treatment with PONVORY should be delayed in patients with active infection until resolution. Lymphocyte counts returned to the normal range in 90% of patients within 1 week of stopping therapy in modeling studies [see Clinical Pharmacology (12.2)]. In Study 1, peripheral lymphocyte counts returned to normal range within 2 weeks after discontinuation of PONVORY, which was the first timepoint evaluated. Because residual pharmacodynamic effects, such as lowering effects on peripheral lymphocyte count, may persist for 1 to 2 weeks after discontinuation of PONVORY, vigilance for infection should be continued for 1 to 2 weeks after PONVORY is discontinued [see Warnings and Precautions (5.12)].
In Study 1, the proportion of patients who experienced lymphocyte counts less than 0.2×10^9/L was 3.2%. Effective diagnostic and therapeutic strategies should be employed in patients with symptoms of infection while on therapy. Consider interruption of treatment with PONVORY if a patient develops a serious infection.

heart rate = test: Heart rate pharmacodynamics, dose dependence; set-up: species or system human; settings: in vivo
Description: PONVORY causes a transient dose-dependent reduction in heart rate (HR) and AV conduction delays upon treatment initiation [see Warnings and Precautions (5.2)]. The heart rate decreases plateaued at doses greater than or equal to 40 mg [2 times the recommended maintenance dosage], and bradyarrhythmic events (AV blocks) were detected at a higher incidence under PONVORY treatment, compared to placebo. This effect starts within the first hour of dosing and is maximal at 2-4 hours post-dose. HR generally returns to pre-dose values by 4-5 hours post-dose on Day 1, and the effect diminishes with repeated administration. indicating tolerance.

clinical = settings: human, in vivo
Description: Steady-state levels are approximately 2.0 to 2.6-fold greater than with a single dose, and are achieved following 3 days of administration of the maintenance dose of ponesimod.
The pharmacokinetics of ponesimod are similar in healthy subjects and patients with multiple sclerosis, with 25% inter-subject variability across studies.
The time to reach maximum plasma concentration of ponesimod is 2-4 hours post-dose.
Following IV administration in healthy subjects, the steady-state volume of distribution of ponesimod is 160 L.

in vitro = in vitro ADME; settings: human, plasma
Source text: (§1) Ponesimod is highly bound to plasma proteins (>99%) and is mainly (78.5%) distributed in the plasma fraction of whole blood.

plasma proteins = test: in vitro; format: in vitro ADME
Source text: as §1

[2] = Pharmacokinetics in hepatic impairment (Child-Pugh class A, B, C); format: in vivo, human
pregnant rats = test: Embryofetal development study in pregnant rats, oral; format: in vivo
Source text: Maternal toxicity was not observed, indicating a selective effect on the fetus.

pregnant rabbits = test: Embryofetal development study in pregnant rabbits, oral; format: in vivo
Source text: No maternal toxicity was observed.

female rats = test: Pre- and postnatal development study in female rats, oral; format: in vivo, rat
Source text: There are no data on the presence of PONVORY in human milk, the effects on the breastfed infant, or the effects of the drug on milk production.

rat = test: Micronucleus in rat; settings: in vivo
Source text: Ponesimod was negative in a battery of in vitro (Ames, chromosomal aberration in mammalian cells) and in vivo (micronucleus in rat) assays.

male and female rats = test: Fertility studies in male and female rats, oral; format: in vivo, rat
Description: Plasma ponesimod exposures (AUC) at the highest dose tested were approximately 10 (males) and 30 (females) times that in humans at the recommended human dose (RHD) of 20 mg/day.

mice, rats, and dogs = settings: in vivo
Source text: At the higher doses tested in short-term studies, alveolar histiocytosis was associated with lung edema, emphysema, or hyalinosis, and with bronchioloalveolar hyperplasia after cessation of dosing in rats and alveolar histiocytosis and hyalinosis in dogs. Effects tended to be absent or less severe after chronic treatment. These findings are considered secondary to increased vascular permeability caused by S1P1 receptor modulation.

[3] = Oral toxicity studies of 13 to 52 weeks in dogs, coronary arterial lesions; format: in vivo, dog; settings: dog, in vivo; 13 to 52 weeks oral
Description: (§2) At the NOAEL (2 mg/kg/day) for these findings, plasma exposures (AUC) were approximately 2 times that expected in humans at the RHD.

dogs = test: as above; format: in vivo, dog; settings: dogs
Description: as §2

[4] = tested on: CYP450, UGT and non-CYP450 oxidative enzymes; test: In vitro studies with human liver preparations (metabolism); format: in vitro ADME
Source text: Experiments with human liver preparations indicate that metabolism of ponesimod to M13 occurs primarily through a combination of non-Cytochrome P450 (CYP450) enzymatic activities. Multiple CYP450 (CYP2J2, CYP3A4, CYP3A5, CYP4F3A, and CYP4F12) and non-CYP450 enzymes catalyze the oxidation of ponesimod to M12. Ponesimod also undergoes direct glucuronidation (mainly UGT1A1 and UGT2B7).

CYP3A4 and UGT1A1 = test: In vitro assessments and limited clinical data, strong CYP3A4 and UGT1A1 inducers; settings: e.g., rifampin, phenytoin, carbamazepine
Source text: It is unclear whether this decrease in ponesimod systemic exposure would be considered of clinical relevance. Coadministration of PONVORY with strong CYP3A4 and UGT1A1 inducers is not recommended.

CCC/N=C1\S/C(=C\c2ccc(OC[C@H](O)CO)c(Cl)c2)C(=O)N1c1ccccc1C [Ponesimod, (R)-5-[3-chloro-4-(2,3-dihydroxy-propoxy)-benz[Z]ylidene]-2-([Z]-propylimino)-3-o-tolyl-thiazolidin-4-one]
Time for peripheral lymphocyte counts to return to normal range after discontinuation ([1]; Study 1, first timepoint evaluated): ≤ 2 weeks | Peripheral lymphocyte count reduced to % of baseline values ([1]; dose-dependent): 30-40 % of baseline | Proportion of patients with lymphocyte counts less than 0.2×10^9/L ([1]; human, in vivo): 3.2% | Dose at which heart rate decreases plateaued (heart rate): greater than or equal to 40 mg | Effect of food on pharmacokinetics (clinical): does not have a clinically relevant effect | Influence of age (range: 17 to 65 years) on PK (clinical): not identified to significantly influence | Influence of gender on pharmacokinetics (clinical): no clinically significant influence | Inter-subject variability of pharmacokinetics across studies (clinical): 25% | Pharmacokinetic differences between Japanese and Caucasian subjects (clinical): No clinically relevant pharmacokinetic differences | Time to steady state on maintenance dose (clinical): 3 days | clearance (clinical; iv): 63.3 mL/min | Increase of Cmax and AUC with dose (clinical; po): approximately dose-proportionally | Steady-state levels relative to a single dose (clinical; po): 2.0-2.6 fold | Time to reach maximum plasma concentration (clinical; po): 2 to 4 h | half-life (clinical; po): ~33 h | bioavailability (clinical; po, 10 mg): 84% | fraction unbound (in vitro): < 0.01 | Distribution in the plasma fraction of whole blood (plasma proteins): 78.5% | Plasma protein binding (plasma proteins; human, plasma): greater than 99% | Increase of AUC0-∞ vs healthy subjects ([2]; mild hepatic impairment (Child-Pugh A)): 1.3 fold | Change in Cmax vs healthy subjects ([2]; mild, moderate, or severe hepatic impairment): no change | Increase of AUC0-∞ vs healthy subjects ([2]; moderate hepatic impairment (Child-Pugh B)): 2.0 fold | Increase of AUC0-∞ vs healthy subjects ([2]; severe hepatic impairment (Child-Pugh C)): 3.1 fold | Embryofetal findings in rats (pregnant rats; 0, 1, 10, or 40 mg/kg/day oral during organogenesis, at all but the lowest dose): increased incidences of fetal malformations | No-effect dose for adverse effects on embryofetal development in rats (pregnant rats; rat, in vivo): 1 mg/kg/day | Plasma exposure (AUC) at no-effect dose vs humans at RHD 20 mg/day (pregnant rats; rats): lower than that in humans | Embryofetal findings in rabbits (pregnant rabbits; 0, 0.25, 1, or 4 mg/kg/day oral, at highest dose): an increase in post-implantation loss and fetal variations | No-effect dose for adverse effects on embryofetal development in rabbits (pregnant rabbits; rabbit, in vivo): 1 mg/kg/day | Plasma exposure at no-effect dose vs humans at RHD (pregnant rabbits; rabbits): lower than that in humans | No-effect dose for adverse effects on pre- and postnatal development in rats (female rats; 5, 10, or 20 mg/kg oral): not identified | Plasma exposure (AUC) in dams at lowest dose tested vs humans at RHD (female rats; rat, in vivo): less than that in humans | Presence in offspring after dosing of female rats during pregnancy and lactation (female rats; suggesting excretion in milk): detected in the plasma of the offspring | Micronucleus in rat result (rat): negative | Effects on fertility in rats (male and female rats; 0, 10, 30, or 100 mg/kg/day oral): no effects on fertility | Plasma exposure (AUC) at highest dose relative to humans at RHD, females (male and female rats; 100 mg/kg/day): ~30 times | Plasma exposure (AUC) at highest dose relative to humans at RHD, males (male and female rats; 100 mg/kg/day): approximately 10 times | Lung findings in oral toxicity studies (mice, rats, and dogs): Increases in lung weight and histopathology | NOAEL [3]: 2 mg/kg/day | Plasma exposures (AUC) at NOAEL relative to humans at RHD (dogs): approximately 2 times | Contribution of enzymes to metabolism [4]: without major contribution by any single enzyme | Effect of strong CYP3A4 and UGT1A1 inducers on systemic exposure (CYP3A4 and UGT1A1): may decrease the systemic exposure
